Consider 14 molecules from ChEMBL document CHEMBL1129077 (J Med Chem, 1996).

Data set [1] deals with T1, Transient receptor potential cation channel subfamily V member 1 (Rattus norvegicus, UniProt O35433). The experiment in a line: Displacement of [3H]RTX from Vanilloid receptor in Rat spinal cord membranes. It counts as cell membranes, Membrane.
Data set [2] has as its target T2, Transient receptor potential cation channel subfamily V member 1 (Homo sapiens, UniProt Q8NER1). Nature of the data set: Effect on cooperativity of Resiniferatoxin (RTX) binding (Hill coefficient). It counts as functional.
The test system of a further data set is Rattus norvegicus. Nature of the data set: Desensitisation against RTX-induced ear edema formation 24 hr r post-administration. Format: functional.
Data set [3] deals with T1, Transient receptor potential cation channel subfamily V member 1. The experiment in a line: Inhibition of [3H]- RTX binding to vanilloid receptor of rat urinary bladder. It counts as functional.
In data set [4] the target is T2, Transient receptor potential cation channel subfamily V member 1. The experiment in a line: Inhibition of [3H]- RTX binding to Vanilloid receptors from human spinal cord.
Data set [5] addresses T1, Transient receptor potential cation channel subfamily V member 1. The experiment in a line: Displacement of [3H]RTX binding from Vanilloid receptor of rat dorsal Root Ganglion (DRG) membranes. It counts as cell membranes, Membrane.
Data set [6] has the same target. The experiment in a line: Inhibitory constant for RTX binding to rat spinal cord. It counts as functional.
For data set [7], the target named is T2, Transient receptor potential cation channel subfamily V member 1. Nature of the data set: Inhibitory constant for RTX binding to human spinal cord. Format: functional, tissue-based.
Data set [8] is described as follows: The effect on the Cooperativity of Resiniferatoxin binding, as Quantitated by the Hill Coefficients.

Bounds are passed on as bounds.

T1 sequence (O35433 whole entry): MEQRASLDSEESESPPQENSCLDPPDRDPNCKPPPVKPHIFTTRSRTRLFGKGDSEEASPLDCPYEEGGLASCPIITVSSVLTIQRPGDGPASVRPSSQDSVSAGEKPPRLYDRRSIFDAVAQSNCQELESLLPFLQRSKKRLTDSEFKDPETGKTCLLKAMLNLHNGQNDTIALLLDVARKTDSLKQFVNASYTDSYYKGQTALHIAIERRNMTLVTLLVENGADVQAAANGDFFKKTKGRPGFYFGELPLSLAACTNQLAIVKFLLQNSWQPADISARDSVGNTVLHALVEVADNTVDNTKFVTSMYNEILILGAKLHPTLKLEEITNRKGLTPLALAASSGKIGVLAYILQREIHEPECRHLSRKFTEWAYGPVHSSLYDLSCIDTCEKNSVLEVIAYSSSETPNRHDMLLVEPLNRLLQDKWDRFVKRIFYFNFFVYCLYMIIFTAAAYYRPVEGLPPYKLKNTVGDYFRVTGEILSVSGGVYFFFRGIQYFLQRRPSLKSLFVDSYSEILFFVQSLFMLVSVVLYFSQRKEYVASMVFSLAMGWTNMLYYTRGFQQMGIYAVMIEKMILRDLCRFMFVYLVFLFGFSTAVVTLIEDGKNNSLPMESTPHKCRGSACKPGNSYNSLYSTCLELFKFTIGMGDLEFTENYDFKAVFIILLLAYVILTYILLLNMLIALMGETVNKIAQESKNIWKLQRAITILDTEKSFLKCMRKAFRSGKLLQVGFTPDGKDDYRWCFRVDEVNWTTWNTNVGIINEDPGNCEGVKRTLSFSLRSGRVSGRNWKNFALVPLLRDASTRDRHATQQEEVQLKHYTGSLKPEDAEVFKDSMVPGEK
T2 sequence (Q8NER1 whole entry): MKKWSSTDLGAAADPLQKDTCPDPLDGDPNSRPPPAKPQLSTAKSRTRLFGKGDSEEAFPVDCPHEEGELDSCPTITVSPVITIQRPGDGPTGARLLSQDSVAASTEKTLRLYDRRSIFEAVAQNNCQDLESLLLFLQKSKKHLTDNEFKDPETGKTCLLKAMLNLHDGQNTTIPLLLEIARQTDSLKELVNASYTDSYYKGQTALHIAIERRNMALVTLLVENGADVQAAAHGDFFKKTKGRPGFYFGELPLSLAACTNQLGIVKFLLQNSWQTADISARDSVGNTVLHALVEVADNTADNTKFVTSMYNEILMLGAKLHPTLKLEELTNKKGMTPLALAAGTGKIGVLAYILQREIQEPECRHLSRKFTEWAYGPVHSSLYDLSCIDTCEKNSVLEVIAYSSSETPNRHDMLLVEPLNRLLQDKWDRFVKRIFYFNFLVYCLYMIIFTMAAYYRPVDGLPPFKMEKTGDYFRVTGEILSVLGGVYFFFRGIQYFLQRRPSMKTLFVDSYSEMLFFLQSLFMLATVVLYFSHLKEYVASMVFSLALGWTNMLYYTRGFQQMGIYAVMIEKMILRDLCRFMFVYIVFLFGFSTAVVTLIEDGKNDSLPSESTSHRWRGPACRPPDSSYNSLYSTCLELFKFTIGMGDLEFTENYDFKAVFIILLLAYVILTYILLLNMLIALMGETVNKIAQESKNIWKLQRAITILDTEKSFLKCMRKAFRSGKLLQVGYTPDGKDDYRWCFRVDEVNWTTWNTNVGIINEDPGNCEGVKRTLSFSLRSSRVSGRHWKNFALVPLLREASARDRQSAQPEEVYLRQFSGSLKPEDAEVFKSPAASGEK

In [1], `COc1cc(CC(=O)OCC2=C[C@H]3[C@@H]4C(C)(C)[C@]4(OC(=O)Cc4ccccc4)[C@H](OC(=O)Cc4ccccc4)[C@@H](C)[C@]3(O)[C@@H]3C=C(C)C(=O)[C@@]3(O)C2)ccc1O` registered an inhibitory constant (Ki) of 300 nM. The molecule further displayed a Hill coefficient in data set [2] of 1.3.

`COc1cc(CC(=O)OCC2=C[C@H]3[C@@H]4C(C)(C)[C@]4(OC(C)=O)[C@H](OC(=O)Cc4ccc(N=[N+]=[N-])cc4)[C@@H](C)[C@]3(O)[C@@H]3C=C(C)C(=O)[C@@]3(O)C2)ccc1O` returned a Ki in data set [1] of 200 nM. In data set [2], this molecule came in with a Hill coefficient of 1.4.

On to `COc1cc(CNC(=O)CCCC/C=C/C(C)C)ccc1O`, for which the Hill coefficient in data set [2] is 2.

In data set [1], `COc1cc(CC(=O)OCC2=C[C@H]3[C@@H]4C(C)(C)[C@]4(OC(C)=O)[C@H](OC(=O)C4CCCCC4)[C@@H](C)[C@]3(O)[C@@H]3C=C(C)C(=O)[C@@]3(O)C2)ccc1O` came in with a Ki of 2200 nM. In data set [2], this molecule came in with a Hill coefficient of 1.

In data set [1], `COc1cc(CC(=O)OCC2=C[C@H]3[C@@H]4C(C)(C)[C@]4(OC(C)=O)[C@H](OC(=O)CC4CCCCC4)[C@@H](C)[C@]3(O)[C@@H]3C=C(C)C(=O)[C@@]3(O)C2)ccc1O` gave a Ki of 400 nM. Besides, the Hill coefficient in [2] came to 1.1.

As for `Oc1cc2c(cc1O)CN(C(=S)NCCc1ccc(Cl)cc1)CCC2` [CAPSAZEPINE], in data set [1], the Ki worked out at 1200 nM. This molecule also displayed a Hill coefficient in [2] of 2.4.

Molecule `COc1cc(CC(=O)OCC2=C[C@H]3[C@@H]4C(C)(C)[C@]4(OC(C)=O)[C@H](OC(=O)Cc4ccccc4)[C@@H](C)[C@]3(O)[C@@H]3C=C(C)[C@H](O)[C@@]3(O)C2)ccc1O` came in with a Ki in data set [1] of over 10000 nM.

Take `COc1cc(CC(=O)OCC2=C[C@H]3[C@@H]4C(C)(C)[C@]4(OC(C)=O)[C@H](OC(=O)Cc4ccccc4)[C@@H](C)[C@]3(O)[C@@H]3C=C(C)C(=O)[C@@]3(O)C2)ccc1O`: the ED50 in the data set on Rattus norvegicus turned out to be 10 mg/kg. The Ki in data set [3] came out at 2000 nM; in [4], 6400 nM; in data set [5] it was 600 nM; in data set [6] it was 0.054 nM; in data set [7], 0.45 nM. The molecule also had a Hill coefficient in [2] of 1.1.

On to `COc1cc(CC(=O)OCC2=C[C@H]3[C@@H]4C(C)(C)[C@]4(OC(C)=O)C(=O)[C@@H](C)[C@]3(O)[C@@H]3C=C(C)C(=O)[C@@]3(O)C2)ccc1O`, for which, in data set [1], the Ki was over 10000 nM.

Regarding `COc1cc(CC(=O)OCC2=C[C@H]3[C@@H]4C(C)(C)[C@]4(OC(C)=O)[C@H](OC(=O)c4ccc(N=[N+]=[N-])cc4)[C@@H](C)[C@]3(O)[C@@H]3C=C(C)C(=O)[C@@]3(O)C2)ccc1O`, the inhibition constant Ki in data set [1] came out at 200 nM. The same molecule returned a Hill coefficient in data set [2] of 1.5.

`COc1cc(CC(=O)OCC2=C[C@H]3[C@@H]4C(C)(C)[C@]4(OC(C)=O)[C@H](OC(=O)Cc4ccccc4)[C@@H](C)[C@]3(O)[C@@H]3C=C(C)C(=O)[C@@]3(O)C2)ccc1OC(C)=O` showed a Ki in [1] of 1700 nM. The molecule also displayed a Hill coefficient in data set [2] of 1.

`C=C(C)[C@]12C[C@@H](C)[C@@]34O[C@](Cc5ccccc5)(O[C@@H]1[C@@H]3C=C(COC(=O)Cc1ccc(O)c(OC)c1)C[C@]1(O)C(=O)C(C)=CC41)O2` (single isomer, unassigned) [RESINIFERATOXIN] returned a Hill coefficient in data set [8] of 2.3. Besides, the affinity in [1] corresponds to a Ki of 0.02 nM.

`COc1cc(CC(=O)OCC2=C[C@H]3[C@@H]4C(C)(C)[C@]4(OC(C)=O)[C@H](OC(=O)c4ccccc4)[C@@H](C)[C@]3(O)[C@@H]3C=C(C)C(=O)[C@@]3(O)C2)ccc1O`: the Ki in data set [1] came to 400 nM. In addition, the Hill coefficient in data set [2] is 1.7.

In the case of `COc1cc(CC(=O)OCC2=C[C@H]3[C@@H]4C(C)(C)[C@]4(OC(=O)Cc4ccccc4)C(=O)[C@@H](C)[C@]3(O)[C@@H]3C=C(C)C(=O)[C@@]3(O)C2)ccc1O`, in [1], the affinity, expressed as Ki, was 1300 nM. Also, the Hill coefficient in data set [2] is 0.9.

The Ki is a dissociation constant, usually derived from enzyme kinetics or from competition with a known ligand. Read a low Ki as higher affinity. As a reminder, the Hill coefficient is the slope factor of the fitted curve. A word on the ED50: it is the dose at which the effect has come halfway, by size or by number of responders.
